From patent US9751886B2, “4-amino-6-phenyl-6,7-dihydro[1,2,3]triazolo[1,5-A]pyrazine derivatives as inhibitors of beta-secretase (BACE)” (Janssen Pharmaceutica NV, priority 2013, dated 2017)

How the values were obtained:
[1] = target: recombinant BACE2 protein (Homo sapiens (Human), UniProt Q9Y5Z0); assay: BACE2 Biochemical FRET based assay; conditions: 0.4 μg/ml BACE2, 10 μM substrate, 450 min, pH 5.0
Description: (§1) This assay is a Fluorescence Resonance Energy Transfer Assay (FRET) based assay. The substrate for this assay contains the ‘Swedish’ Lys-Met/Asn-Leu mutation of the amyloid precursor protein (APP) beta-secretase cleavage site. This substrate also contains two fluorophores: (7-methoxycoumarin-4-yl) acetic acid (Mca) is a fluorescent donor with excitation wavelength at 320 nm and emission at 405 nm and 2,4-Dinitrophenyl (Dnp) is a proprietary quencher acceptor. […] Upon cleavage by the beta-secretase, the fluorophore Mca is separated from the quenching group Dnp, restoring the full fluorescence yield of the donor. The increase in fluorescence is linearly related to the rate of proteolysis.
Briefly in a 384-well format recombinant BACE2 protein in a final concentration of 0.4 μg/ml is incubated for 450 minutes at room temperature with 10 μM substrate in incubation buffer (50 mM Citrate buffer pH 5.0, 0.05% PEG, no DMSO) in the absence or presence of compound. Next the amount of proteolysis is directly measured by fluorescence measurement at T=0 and T=450 (excitation at 320 nm and emission at 405 nm). Results are expressed in RFU (Relative Fluorescence Units), as difference between T450 and TO.

[2] = test system: Abeta 1-42 secreted by human neuroblastoma SKNBE2 cells expressing wild type hAPP695; assay: BACE1 cellular αLisa assay in SKNBE2 cells, Abeta 1-42; type: cell-based; conditions: Homo sapiens, 18 hours incubation, read-out: Cellular αLisa assay in SKNBE2 cells Abeta 42 pIC50 (converted)
Description: (§2) In two αLisa assays the levels of Abeta total and Abeta 1-42 produced and secreted into the medium of human neuroblastoma SKNBE2 cells are quantified. The assay is based on the human neuroblastoma SKNBE2 expressing the wild type Amyloid Precursor Protein (hAPP695). The compounds are diluted and added to these cells, incubated for 18 hours and then measurements of Abeta 1-42 and Abeta total are taken. Abeta total and Abeta 1-42 are measured by sandwich αLisa. αLisa is a sandwich assay using biotinylated antibody AbN/25 attached to streptavidin coated beads and antibody Ab4G8 or cAb42/26 conjugated acceptor beads for the detection of Abeta total and Abeta 1-42 respectively. In the presence of Abeta total or Abeta 1-42, the beads come into close proximity. The excitation of the donor beads provokes the release of singlet oxygen molecules that trigger a cascade of energy transfer in the acceptor beads, resulting in light emission.

[3] = target: recombinant BACE1 protein (Homo sapiens (Human), UniProt P56817); assay: BACE1 Biochemical FRET based assay - Method 2; conditions: 0.04 μg/ml BACE1, 20 μM substrate, 450 min, pH 5.0
Chain of recombinant BACE1 protein (P56817 46-501): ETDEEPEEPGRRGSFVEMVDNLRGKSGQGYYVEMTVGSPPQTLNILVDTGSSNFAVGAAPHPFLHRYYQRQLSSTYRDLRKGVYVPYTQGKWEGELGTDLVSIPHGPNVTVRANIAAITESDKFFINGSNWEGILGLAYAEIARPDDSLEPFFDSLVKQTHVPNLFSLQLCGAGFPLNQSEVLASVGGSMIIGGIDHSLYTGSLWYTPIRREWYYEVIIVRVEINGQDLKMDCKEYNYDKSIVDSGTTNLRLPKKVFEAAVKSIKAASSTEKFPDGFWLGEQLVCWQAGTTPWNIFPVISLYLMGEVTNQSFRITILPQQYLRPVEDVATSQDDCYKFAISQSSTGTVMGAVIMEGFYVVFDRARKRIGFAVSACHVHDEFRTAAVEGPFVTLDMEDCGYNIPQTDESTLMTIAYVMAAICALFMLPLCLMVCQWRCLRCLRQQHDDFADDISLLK
Description: as §1, with “this assay is an APP derived 13 amino acids peptide that contains the” for “this assay contains the”, “cleavage by BACE1, the fluorophore” for “cleavage by the beta-secretase, the fluorophore”
Briefly in a 384-well format recombinant BACE1 protein in a final concentration of 0.04 μg/ml is incubated for 450 minutes at room temperature with 20 μM substrate in incubation buffer (50 mM Citrate buffer pH 5.0, 0.05% PEG) in the presence of compound or DMSO. Next the amount of proteolysis is directly measured by fluorescence measurement (excitation at 320 nm and emission at 405 nm) at different incubation times (0, 30, 60, 90, 120 and 450 min). For every experiment a time curve (every 30 min between 0 min and 120 min) is used to determine the time where we find the lowest basal signal of the high control. The signal at this time (Tx) is used to subtract from the signal at 450 min. Results are expressed in RFU, as difference between T450 and Tx.

[4] = test system: Abeta total secreted by human neuroblastoma SKNBE2 cells expressing wild type hAPP695; assay: BACE1 cellular αLisa assay in SKNBE2 cells, Abeta total; type: cell-based; conditions: Homo sapiens, 18 hours incubation, read-out: Cellular αLisa assay in SKNBE2 cells Abetatotal pIC50 (converted)
Description: as §2

Chain of recombinant BACE2 protein (Q9Y5Z0 63-518): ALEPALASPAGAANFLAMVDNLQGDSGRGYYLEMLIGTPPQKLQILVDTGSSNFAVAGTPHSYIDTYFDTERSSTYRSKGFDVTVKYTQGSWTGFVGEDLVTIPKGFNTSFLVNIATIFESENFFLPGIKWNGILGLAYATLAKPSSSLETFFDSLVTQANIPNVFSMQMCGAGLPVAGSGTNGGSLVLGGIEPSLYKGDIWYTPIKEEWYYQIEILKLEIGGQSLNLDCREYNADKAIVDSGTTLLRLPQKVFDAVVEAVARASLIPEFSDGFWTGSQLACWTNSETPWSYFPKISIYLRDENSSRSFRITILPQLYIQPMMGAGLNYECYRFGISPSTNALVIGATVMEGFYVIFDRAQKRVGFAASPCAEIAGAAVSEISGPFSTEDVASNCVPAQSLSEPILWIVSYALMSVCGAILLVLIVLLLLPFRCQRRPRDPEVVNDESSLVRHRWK

Compound: C[C@@]1(c2cc(NC(=O)c3ccc(F)cn3)ccc2F)Cn2nncc2C(N)=N1 [Compound 1, N-{3-[(6R)-4-amino-6-methyl-6,7-dihydro[1,2,3]triazolo[1,5-a]pyrazin-6-yl]-4-fluorophenyl}-5-fluoropyridine-2-carboxamide]
- BACE2 Biochemical FRET based assay pIC50 [1]: 8.48
- IC50 [2]: 4.47 nM
- BACE1 Biochemical FRET based assay - Method 2 pIC50 [3]: 8.37
- IC50 [4]: 3.24 nM
